Values joined by “and” are separate entries in the source; they are usually repeats but may differ in a detail not shown here. Identical values can stand only once. Active and inactive are the calls of the source.
Legend:
[1] = test system: Vero; test: cells; assay type: functional; details: Chlorocebus sabaeus
[2] = target: T1, Coagulation factor XII (Homo sapiens, UniProt P00748); assay type: functional;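 further: activated factor XIIa alpha cleaving a fluorogenic AMC peptide substrate; inhibitor potency from loss of enzyme activity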
T1 sequence (P00748 whole entry): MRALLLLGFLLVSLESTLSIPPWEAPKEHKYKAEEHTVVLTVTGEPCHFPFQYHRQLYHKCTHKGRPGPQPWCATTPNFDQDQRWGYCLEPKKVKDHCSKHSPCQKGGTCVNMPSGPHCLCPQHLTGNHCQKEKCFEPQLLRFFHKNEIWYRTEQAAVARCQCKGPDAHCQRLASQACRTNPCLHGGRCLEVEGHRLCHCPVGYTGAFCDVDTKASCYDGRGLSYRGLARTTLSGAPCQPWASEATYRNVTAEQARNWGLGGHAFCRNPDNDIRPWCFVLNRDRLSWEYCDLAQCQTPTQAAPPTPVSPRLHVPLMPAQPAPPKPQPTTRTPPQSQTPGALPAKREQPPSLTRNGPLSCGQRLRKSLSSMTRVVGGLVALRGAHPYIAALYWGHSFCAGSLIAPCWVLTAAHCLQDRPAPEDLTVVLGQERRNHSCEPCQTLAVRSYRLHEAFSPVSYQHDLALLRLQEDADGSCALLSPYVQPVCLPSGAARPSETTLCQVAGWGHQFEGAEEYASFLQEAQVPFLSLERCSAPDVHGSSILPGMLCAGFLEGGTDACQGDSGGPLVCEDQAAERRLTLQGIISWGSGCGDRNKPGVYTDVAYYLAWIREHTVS

[3] = target: T2, Short transient receptor potential channel 4 (Mus musculus, UniProt Q9QUQ5); test: mouse TRPC4 channel inhibitors, dose response, cell-based, HEK293 TRPC4/mu-opioid, Fluo-4 calcium (AID 434942); assay type: functional;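 further: potency of inhibitors blocking the TRPC4 calcium response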
T2 sequence (Q9QUQ5 whole entry): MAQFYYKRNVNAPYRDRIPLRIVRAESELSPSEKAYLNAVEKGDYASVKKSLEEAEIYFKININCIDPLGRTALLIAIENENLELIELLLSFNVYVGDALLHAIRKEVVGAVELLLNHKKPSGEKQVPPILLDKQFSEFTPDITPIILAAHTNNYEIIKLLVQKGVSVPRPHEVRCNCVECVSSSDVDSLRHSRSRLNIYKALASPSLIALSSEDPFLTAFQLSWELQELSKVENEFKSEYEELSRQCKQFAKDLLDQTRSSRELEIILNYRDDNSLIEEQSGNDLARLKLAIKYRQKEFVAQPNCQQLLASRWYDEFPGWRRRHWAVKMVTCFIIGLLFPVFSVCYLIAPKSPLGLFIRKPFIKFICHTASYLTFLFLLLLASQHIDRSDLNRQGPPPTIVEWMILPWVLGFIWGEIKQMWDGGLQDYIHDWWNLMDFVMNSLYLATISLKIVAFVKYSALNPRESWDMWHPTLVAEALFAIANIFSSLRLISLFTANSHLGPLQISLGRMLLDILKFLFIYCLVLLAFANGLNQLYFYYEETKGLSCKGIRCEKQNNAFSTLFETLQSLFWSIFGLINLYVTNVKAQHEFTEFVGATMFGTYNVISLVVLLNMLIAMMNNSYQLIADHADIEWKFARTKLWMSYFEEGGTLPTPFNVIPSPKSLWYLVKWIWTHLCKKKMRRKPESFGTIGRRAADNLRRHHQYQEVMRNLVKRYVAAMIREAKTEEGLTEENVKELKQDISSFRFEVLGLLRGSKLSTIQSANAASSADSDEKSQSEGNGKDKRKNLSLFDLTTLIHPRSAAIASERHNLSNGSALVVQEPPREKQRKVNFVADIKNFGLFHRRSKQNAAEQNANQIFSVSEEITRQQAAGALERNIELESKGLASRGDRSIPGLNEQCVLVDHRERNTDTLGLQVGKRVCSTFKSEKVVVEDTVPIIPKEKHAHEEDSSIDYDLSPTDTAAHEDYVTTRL

[4] = cytotoxicity in HEK-293T NF-kB-Luc cells, dose response, cytotoxicity control for B/T-cell NF-kB inhibitor project, cell-based, uHTS hits (AID 489019); assay type: functional;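 further: IC50 reflects cytotoxicity as loss of cell viability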
[5] = target: Cytochrome P450 2D6 (Homo sapiens, UniProt P10635);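 further: CYP2D6 member of a cytochrome P450 panel assay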
[6] = test system: Jurkat; test: antigen receptor-induced NF-kB inhibitors, dose response, Jurkat, luciferase reporter, luminescence, B- and T-cell (AID 489004); assay type: functional, cell-based; details: Homo sapiens;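 further: NF-kB luciferase reporter Jurkat cells stimulated with PMA plus ionomycin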
[7] = target: T3, Cytochrome P450 1A2 (Homo sapiens, UniProt P05177);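 further: PubChem cytochrome P450 panel assay, CYP1A2 panel member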
T3 sequence (P05177 whole entry): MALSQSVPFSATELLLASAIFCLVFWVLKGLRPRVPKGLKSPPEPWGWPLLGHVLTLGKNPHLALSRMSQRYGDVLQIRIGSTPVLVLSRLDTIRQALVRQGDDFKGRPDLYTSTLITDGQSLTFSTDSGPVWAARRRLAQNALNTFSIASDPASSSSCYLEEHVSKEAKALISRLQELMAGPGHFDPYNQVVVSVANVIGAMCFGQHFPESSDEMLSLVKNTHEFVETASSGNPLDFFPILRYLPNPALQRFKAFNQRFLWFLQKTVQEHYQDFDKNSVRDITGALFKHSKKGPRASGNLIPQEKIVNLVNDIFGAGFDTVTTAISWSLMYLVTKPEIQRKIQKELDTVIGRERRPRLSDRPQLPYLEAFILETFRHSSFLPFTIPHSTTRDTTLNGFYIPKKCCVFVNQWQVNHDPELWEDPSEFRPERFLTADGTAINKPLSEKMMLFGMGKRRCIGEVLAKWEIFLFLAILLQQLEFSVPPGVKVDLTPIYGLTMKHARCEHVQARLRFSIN

[8] = target: Cytochrome P450 2C9 (Homo sapiens, UniProt P11712)
[9] = cells; assay type: functional
[10] = THP-1 cell cytotoxicity, dose response, cytotoxicity control for non-replicating M. tuberculosis project (AID 489025); assay type: functional
[11] = Luminescence Cell-Based Dose Confirmation HTS to Identify Inhibitors of Platelet Dense Granule Release. [Related pubchem assays: 1663 (Primary HTS), 1678 (Summary of Project)]; assay type: functional
[12] = target: Luciferin 4-monooxygenase (Photinus pyralis, UniProt P08659); test: firefly luciferase enzyme inhibitors, dose response, biochemical, luminescence (AID 1891)
[13] = target: T4, Cytochrome P450 3A4 (Homo sapiens, UniProt P08684);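 further: CYP3A4 tested as one member of a cytochrome P450 panel screen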
[14] = target: T4, Cytochrome P450 3A4; remark: listed apart in the source
[15] = target: Cytochrome P450 2C19 (Homo sapiens, UniProt P33261); test: Cytochrome panel assay with activity outcomes. Panel member name: p450-cyp2c19 Compounds with AC50 equal or less than 10 uM are considered active; assay type: functional; details: read-out: AC50
[16] = target: T5, Heat shock factor protein 1 (Mus musculus, UniProt P38532); test: HSF1 potentiators in luciferase reporter cells, confirmation, cell-based, NIH3T3, luminescence, dose retest (AID 435004); assay type: functional;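 further: stress induced by proteasome inhibitor MG132 added 30 min after compound; luciferase reporter driven by HSF1 response element in NIH3T3 cells; actives raise luminescence as potentiators of the MG132 stress response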
T5 sequence (P38532 whole entry): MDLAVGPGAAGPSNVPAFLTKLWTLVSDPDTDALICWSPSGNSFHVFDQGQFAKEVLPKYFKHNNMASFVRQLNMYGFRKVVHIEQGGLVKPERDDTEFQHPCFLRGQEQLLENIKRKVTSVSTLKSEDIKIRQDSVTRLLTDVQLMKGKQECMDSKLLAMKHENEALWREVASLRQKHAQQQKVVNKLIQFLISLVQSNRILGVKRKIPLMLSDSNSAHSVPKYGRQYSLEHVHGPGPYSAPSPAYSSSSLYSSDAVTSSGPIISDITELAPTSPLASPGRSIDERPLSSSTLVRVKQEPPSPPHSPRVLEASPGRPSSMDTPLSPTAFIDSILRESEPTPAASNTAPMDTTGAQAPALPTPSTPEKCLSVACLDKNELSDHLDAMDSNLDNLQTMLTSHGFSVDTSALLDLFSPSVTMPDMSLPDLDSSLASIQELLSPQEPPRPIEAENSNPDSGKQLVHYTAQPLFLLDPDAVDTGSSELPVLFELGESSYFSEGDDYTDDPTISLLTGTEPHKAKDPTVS

T4 sequence (P08684 whole entry): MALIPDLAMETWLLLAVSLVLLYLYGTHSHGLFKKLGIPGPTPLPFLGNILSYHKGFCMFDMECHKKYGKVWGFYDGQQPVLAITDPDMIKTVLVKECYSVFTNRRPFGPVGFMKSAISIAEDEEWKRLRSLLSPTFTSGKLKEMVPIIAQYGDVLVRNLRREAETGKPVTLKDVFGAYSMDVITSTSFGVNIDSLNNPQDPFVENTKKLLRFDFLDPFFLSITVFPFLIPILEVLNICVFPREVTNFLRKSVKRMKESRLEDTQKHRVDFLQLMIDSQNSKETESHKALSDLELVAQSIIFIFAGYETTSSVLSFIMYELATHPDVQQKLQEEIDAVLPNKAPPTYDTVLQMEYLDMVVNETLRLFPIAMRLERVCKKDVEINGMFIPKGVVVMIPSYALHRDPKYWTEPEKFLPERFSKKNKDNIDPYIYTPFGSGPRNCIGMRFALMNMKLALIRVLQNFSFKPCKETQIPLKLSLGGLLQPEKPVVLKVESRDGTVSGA
Cytochrome P450 2D6, sequence (P10635 whole entry): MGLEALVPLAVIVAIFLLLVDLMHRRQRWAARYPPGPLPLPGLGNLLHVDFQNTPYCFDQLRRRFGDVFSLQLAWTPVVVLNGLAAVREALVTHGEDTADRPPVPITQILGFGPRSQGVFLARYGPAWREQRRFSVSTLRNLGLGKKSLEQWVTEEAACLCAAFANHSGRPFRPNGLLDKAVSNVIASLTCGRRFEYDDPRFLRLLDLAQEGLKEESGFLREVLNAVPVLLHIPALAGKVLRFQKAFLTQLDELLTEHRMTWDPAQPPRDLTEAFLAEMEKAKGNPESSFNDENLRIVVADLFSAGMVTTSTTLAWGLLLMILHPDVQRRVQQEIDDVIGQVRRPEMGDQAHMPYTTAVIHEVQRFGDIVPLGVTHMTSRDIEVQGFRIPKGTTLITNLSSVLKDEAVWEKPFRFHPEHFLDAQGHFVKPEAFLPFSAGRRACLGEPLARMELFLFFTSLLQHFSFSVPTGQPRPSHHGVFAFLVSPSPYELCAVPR
Cytochrome P450 2C9, sequence (P11712 whole entry): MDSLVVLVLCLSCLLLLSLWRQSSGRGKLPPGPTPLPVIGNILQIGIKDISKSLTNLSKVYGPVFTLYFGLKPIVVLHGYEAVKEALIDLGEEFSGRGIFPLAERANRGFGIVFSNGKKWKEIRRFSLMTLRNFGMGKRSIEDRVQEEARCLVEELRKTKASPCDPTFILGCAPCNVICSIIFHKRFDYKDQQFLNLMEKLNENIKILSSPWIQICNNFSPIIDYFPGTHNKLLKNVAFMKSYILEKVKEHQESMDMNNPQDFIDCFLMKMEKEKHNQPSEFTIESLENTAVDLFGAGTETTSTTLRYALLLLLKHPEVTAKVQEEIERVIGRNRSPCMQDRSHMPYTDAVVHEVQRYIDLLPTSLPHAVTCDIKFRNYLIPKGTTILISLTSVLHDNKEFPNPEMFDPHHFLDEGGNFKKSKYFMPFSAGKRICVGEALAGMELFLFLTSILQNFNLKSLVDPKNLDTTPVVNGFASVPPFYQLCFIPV
Cytochrome P450 2C19, sequence (P33261 whole entry): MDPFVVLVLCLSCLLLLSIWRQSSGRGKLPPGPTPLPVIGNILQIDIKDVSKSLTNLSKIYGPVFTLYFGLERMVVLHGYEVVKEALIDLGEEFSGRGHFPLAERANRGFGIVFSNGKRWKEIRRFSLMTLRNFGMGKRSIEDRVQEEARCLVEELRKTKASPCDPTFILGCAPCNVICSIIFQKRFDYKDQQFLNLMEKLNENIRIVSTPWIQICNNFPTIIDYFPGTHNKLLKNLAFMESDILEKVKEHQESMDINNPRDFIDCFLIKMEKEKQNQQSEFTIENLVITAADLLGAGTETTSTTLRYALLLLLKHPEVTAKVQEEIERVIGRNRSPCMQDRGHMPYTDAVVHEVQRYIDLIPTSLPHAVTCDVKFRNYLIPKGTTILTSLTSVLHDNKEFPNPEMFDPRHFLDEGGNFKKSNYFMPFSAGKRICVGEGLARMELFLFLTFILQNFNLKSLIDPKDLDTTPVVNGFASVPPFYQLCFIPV
Luciferin 4-monooxygenase, sequence (P08659 whole entry): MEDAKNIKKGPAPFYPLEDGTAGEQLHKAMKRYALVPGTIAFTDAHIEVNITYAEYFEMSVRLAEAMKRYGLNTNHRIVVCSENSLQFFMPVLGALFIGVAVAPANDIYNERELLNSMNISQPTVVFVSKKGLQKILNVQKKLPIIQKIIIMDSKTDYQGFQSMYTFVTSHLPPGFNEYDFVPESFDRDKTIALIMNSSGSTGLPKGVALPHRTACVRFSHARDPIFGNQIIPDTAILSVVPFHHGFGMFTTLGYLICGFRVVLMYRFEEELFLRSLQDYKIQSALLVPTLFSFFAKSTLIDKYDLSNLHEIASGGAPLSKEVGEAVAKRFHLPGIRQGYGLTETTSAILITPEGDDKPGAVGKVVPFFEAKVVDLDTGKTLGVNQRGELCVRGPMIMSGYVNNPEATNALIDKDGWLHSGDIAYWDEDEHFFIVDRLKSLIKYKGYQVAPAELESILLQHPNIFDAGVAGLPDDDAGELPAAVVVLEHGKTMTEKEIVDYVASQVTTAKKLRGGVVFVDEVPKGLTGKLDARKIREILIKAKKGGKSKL

## CCN(CC)CCCN(C(=O)c1ccccc1F)c1nc(-c2ccc(OC)cc2)cs1
[1]
  CC50: 17.6 µM (active)

## CNC(=O)c1ccc(N(Cc2ccccc2)S(C)(=O)=O)cc1
[2]
  IC50: > 50 µM (inactive)

## O=C(C1CCN(CC2CC=CCC2)CC1)N(CCc1ccccc1)Cc1ccccc1 (stereo not drawn)
[3]
  EC50: 2.66 µM (active)

## COc1ccc(OC)c(C2C3=C(O)OCC3=Nc3cc4c(cc32)OCO4)c1 (stereo not drawn)
[4]
  IC50: > 80 µM (inactive)
[5]
  AC50: 22.4 µM (inconclusive)
[6]
  IC50: > 80 µM (inactive)
[7]
  AC50: 10 µM (inconclusive)
[8]
  AC50: 7.94 µM (inconclusive)

## O=C(CCc1ccc(Oc2cc([N+](=O)[O-])cc([N+](=O)[O-])c2)cc1)N1CCCCC1
[9]
  IC50: 11.4 µM (active)
[10]
  CC50: > 40 µM (active)

## Cc1ccc(C(=O)ONc2ccc(N=O)cc2)cc1
[11]
  EC50: 2.69 µM (active)
[12]
  EC50: < 0.088 µM (active)
[2]
  IC50: 29.8 µM (active)

## CCCCNc1nc2ccccc2[nH]1
[3]
  EC50: 2.99 µM (active)

## N=C(N)NC(=N)Nc1cccc(Cl)c1
[13]
  AC50: 79.4 µM (inconclusive)
[14]
  AC50: inconclusive
[5]
  AC50: 25.1 µM (inconclusive) and 39.8 µM (inconclusive)

## Cc1cc(=O)n2c(n1)SCOC2
[2]
  IC50: > 50 µM (inactive)

## CCOC(=O)c1ccc(N2C(=O)CC(Nc3ccc(CCO)cc3)C2=O)cc1 (stereo not drawn)
[15]
  AC50: 8.91 µM (inconclusive)
[14]
  AC50: inconclusive
[8]
  AC50: 6.31 µM (inconclusive)

## CN(NC1OC(=O)c2ccccc21)c1ncc(Cl)cc1C(F)(F)F (stereo not drawn)
[16]
  EC50: > 260 µM (inactive)
[2]
  IC50: > 50 µM (inactive)
